Assays:
Format in all cases: cell-based
[1] = tested on: LU99 MTAP(-/-)deleted cells; test: Inhibitory activity on proliferation of LU99 MTAP(-/-)deleted cells (Cell-Titer Glo); conditions: Homo sapiens, Lu-99, 144 h, incubated 6 d, 0-1,000 nM
Description: (§1) Materials and cells: LU99 MTAP deleted cell line was purchased from Kyinno Biotechnology (China); cell culture medium and fetal bovine serum were purchased from Thermo Fisher Scientific (USA); 384-well plates were purchased from PerkinElmer (USA); Cell-Titer Glo kits were purchased from Promega (USA).
Cell culture: LU99 MTAP(-/-)deleted cells were cultured with medium containing 10% fetal bovine serum at 37°C in 5% carbon dioxide. Only cells in the logarithmic growth phase could be used for the test.
(§2) Test of inhibitory activity on cell proliferation: The Cell-Titer Glo kit was used to test the proliferation inhibitory activity of the compounds on LU99 MTAP(-/-)deleted cells. The cell concentration was adjusted, rendering that cells were inoculated into a 384-well plate at 40 µL per well and incubated overnight at 37°C and 5% carbon dioxide. 40 nL of the compound was added to each well to reach a final concentration of 0-1,000 nM (starting concentration 1,000 nM, 2.5-fold dilution, 10 points), and the cell plate with 0.2% DMSO content was incubated at 37°C and 5% carbon dioxide for 6 d. 40 µL of Cell-Titer Glo reagent was added to test cell viability.

[2] = tested on: HCT-116 MTAP(-/-)deleted cells; test: Inhibitory activity on proliferation of HCT-116 MTAP(-/-)deleted cells (Cell-Titer Glo); conditions: Homo sapiens, 144 h, incubated 6 d, 0-1,000 nM
Description: (§3) Materials and cells: HCT-116 MTAP(-/-)deleted cells were purchased from Kyinno Biotechnology (China); RPMI-1640 medium, and fetal bovine serum were purchased from Thermo Fisher (United States); 384-well plates were purchased from PerkinElmer (United States); Cell-Titer Glo kit was purchased from Promega (United States).
Cell culture: HCT116 MTAP(-/-)deleted cells were cultured with RPMI 1640 medium containing 10% fetal bovine serum at 37°C in 5% carbon dioxide. Only cells in the logarithmic growth phase could be used for the test.
as §2, with “compounds on HCT-116 MTAP(-/-)deleted cells.” for “compounds on LU99 MTAP(-/-)deleted cells.”, “carbon dioxide. 80 nL of” for “carbon dioxide. 40 nL of”, “was added into each well” for “was added to each well”

[3] = tested on: HCT-116 wild-type cells; test: Inhibitory activity on proliferation of HCT-116 wild-type cells (Cell-Titer Glo); conditions: Homo sapiens, 144 h, incubated 6 d, 0-10,000 nM
Description: as §3, with “wild-type” for “MTAP(-/-)deleted”
Cell culture: HCT-116 wild-type cells were cultured in RPMI-1640 medium containing 10% fetal bovine serum at 37°C and 5% carbon dioxide. Only cells in the logarithmic growth phase could be used for the test.
Test of cell proliferation activity: Cell-Titer Glo kit was used to test the proliferation inhibitory activity of the compound on HCT-116 wild-type cells. The cell concentration was adjusted, rendering that cells were inoculated into a 384-well plate at 40 µL per well and incubated overnight at 37°C and 5% carbon dioxide. 80 nL of the compound was added to each well to reach a final concentration of 0-10,000 nM (starting concentration 10,000 nM, 2.5-fold dilution, 10 points), and the cell plate with 0.2% DMSO content was incubated at 37°C and 5% carbon dioxide for 6 d. 40 µL of Cell-Titer Glo reagent was added to test cell viability.

[4] = tested on: LU99 MTAP overexpressing cells; test: Inhibitory activity on proliferation of LU99 MTAP overexpressing cells (Cell-Titer Glo); conditions: Homo sapiens, Lu-99, 144 h, incubated 6 d, 0-10,000 nM
Description: as §1, with “overexpressing” for “deleted”
Cell culture: LU99 MTAP overexpressing cells were cultured with medium containing 10% fetal bovine serum at 37°C in 5% carbon dioxide. Only cells in the logarithmic growth phase could be used for the test.
as §2, with “MTAP overexpressing” for “MTAP(-/-)deleted”, “0-10,000” for “0-1,000”, “10,000” for “1,000”

With `CN(C(=O)c1cc2c(cc1Cl)nc(N)c1cnn(C)c12)C1COC(C)(C)c2cc(C(F)(F)F)ccc21` (stereo not drawn) [Example 24, 4-amino-7-chloro-N-(1,1-dimethyl-7-(trifluoromethyl)isochroman-4-yl)-N,1-dimethyl-1H-pyrazolo[4,3-c]quinoline-8-carboxamide] the IC50 [1] was 16.4 nM, the IC50 [2] was 15.1 nM and the IC50 [3] was 156 nM. It also gave an IC50 [4] of 252 nM.
In the case of `CN(C(=O)c1cc2c3c(c(N)nc2cn1)COC3)[C@@H]1COC(C)(C)c2cc(C(F)(F)F)ccc21` [Example 26, (S)-4-Amino-N-(1,1-dimethyl-7-(trifluoromethyl)isochroman-4-yl)-N-methyl-1,3-dihydrofuro[3,4-c][1,7]naphthyridine-8-carboxamide], the IC50 [1] is reported as 14.9 nM, the IC50 [2] is reported as 11 nM and the IC50 [3] is reported as 2050 nM. The IC50 [4] was 1310 nM.
With `CN(C(=O)c1cc2c3c(c(N)nc2cn1)COC3)C1COC(C)(C)c2cc(C(F)(F)F)ccc21` (stereo not drawn) [Example 5, 4-Amino-N-(1,1-dimethyl-7-(trifluoromethyl)isochroman-4-yl)-N-methyl-1,3-dihydrofuro[3,4-c][1,7]naphthyridine-8-carboxamide] the IC50 [1] was 37.1 nM, the IC50 [2] was 28.2 nM and the IC50 [3] was 7770 nM. It also gave an IC50 [4] of 4980 nM.
In the case of `Cc1ncc(-c2ccc3c(c2)C(C)(C)OC[C@H]3N(C)C(=O)c2ccc3nc(N)c4cnn(C)c4c3c2)cn1` [Example 34, (S)-4-amino-N-(1,1-dimethyl-7-(2-methylpyrimidin-5-yl)isochroman-4-yl)-N,1-dimethyl-1H-pyrazolo[4,3-c]quinoline-8-carboxamide], the IC50 [1] is reported as 5.2 nM, the IC50 [2] is reported as 8.5 nM and the IC50 [3] is reported as 1620 nM. It also gave an IC50 [4] of 1660 nM.
`CN(C(=O)c1ccc2nc(N)c3cnn(C)c3c2c1)[C@@H]1COC(C)(C)c2cc(-c3cncc(C(F)(F)F)c3)ccc21` [Example 41, (S)-4-amino-N-(1,1-dimethyl-7-(5-(trifluoromethyl)pyridin-3-yl)isochroman-4-yl)-N,1-dimethyl-1H-pyrazolo[4,3-c]quinoline-8-carboxamide] was tested, and the IC50 [1] was 6.1 nM, the IC50 [2] was 4.6 nM and the IC50 [3] was 1030 nM. It also gave an IC50 [4] of 1860 nM.
`CN(C(=O)c1ccc2nc(N)c3cnn(C)c3c2c1)[C@H]1COC(C)(C)c2nc(C(F)(F)F)ccc21` [Example 51] showed an IC50 [1] of 4.9 nM, an IC50 [2] of 3.1 nM and an IC50 [3] of 447 nM. It also gave an IC50 [4] of 711 nM.
`CN(C(=O)c1ccc2nc(N)c3cnn(C)c3c2c1)[C@@H]1COC(C)(C)c2cc(N3CCn4cncc4C3)ccc21` [Example 86, N-((4S)-7-imidazo[5,1-c]piperazin-7-yl-1,1-dimethylisochroman-4-yl)(4-amino-1-methylpyrazolo[4,5-c]quinolin-8-yl)-N-methylformamide] was tested, and the IC50 [1] was 31 nM, the IC50 [2] was 21.6 nM and the IC50 [3] was 3790 nM. For the same compound, the IC50 [4] was 7870 nM.
Work on `CN(C(=O)c1cc2c(cc1F)nc(N)c1cnn(C)c12)C1COC(C)(C)c2cc(-c3ccnn3C)ccc21` (stereo not drawn) [Example 14, (4-amino-7-fluoro-1-methylpyrazolo[4,5-c]quinolin-8-yl)-N-[1,1-dimethyl-7-(1-methylpyrazol-5-yl)isochroman-4-yl]-N-methylformamide] yielded an IC50 [1] of 5.9 nM, an IC50 [2] of 4.1 nM and an IC50 [3] of 286 nM. It also gave an IC50 [4] of 309 nM.
With `CN(C(=O)c1cc2c3c(c(N)nc2cn1)COC3)C1COC2(CCC2)c2cc(C(F)(F)F)ccc21` (stereo not drawn) [Example 29, 4-Amino-N-methyl-N-(7'-(trifluoromethyl)spiro[cyclobutane-1,1'-isochroman]-4'-yl)-1,3-dihydrofuro[3,4-c][1,7]naphthyridine-8-carboxamide] the IC50 [1] was 23.7 nM, the IC50 [2] was 17 nM and the IC50 [3] was 1790 nM. The IC50 [4] was 1030 nM.
In the case of `CN(C(=O)c1ccc2nc(N)c3cnn(C)c3c2c1)[C@@H]1COC(C)(C)c2cc(-c3cnn(C(F)(F)F)c3)ccc21` [Example 32, (S)-4-amino-N-(1,1-dimethyl-7-(1-(trifluoromethyl)-1H-pyrazol-4-yl)isochroman-4-yl)-N,1-dimethyl-1H-pyrazolo[4,3-c]quinoline-8-carboxamide], the IC50 [1] is reported as 6.8 nM, the IC50 [2] is reported as 5.7 nM and the IC50 [3] is reported as 1530 nM. The IC50 [4] was 1890 nM.
With `CN(C(=O)c1cc2c(cn1)nc(N)c1cnn(C)c12)[C@@H]1COC(C)(C)c2cc(C(F)(F)F)ccc21` [Example 28, (S)-4-amino-N-(1,1-dimethyl-7-(trifluoromethyl)isochroman-4-yl)-N,1-dimethyl-1H-pyrazolo[4,3-c][1,7]naphthyridine-8-carboxamide] the IC50 [1] was 10.7 nM, the IC50 [2] was 10.3 nM and the IC50 [3] was 226 nM. For the same compound, the IC50 [4] was 376 nM.
With `Cc1nn(C)c2c1c(N)nc1ccc(C(=O)N(C)[C@@H]3COC(C)(C)c4cc(C(F)(F)F)ccc43)cc12` [Example 35, (S)-4-amino-N-(1,1-dimethyl-7-(trifluoromethyl)isochroman-4-yl)-N,1,3-trimethyl-1H-pyrazolo[4,3-c]quinoline-8-carboxamide] the IC50 [1] was 24.2 nM, the IC50 [2] was 15 nM and the IC50 [3] was 2100 nM. It also gave an IC50 [4] of 858 nM.
`CN(C(=O)c1ccc2nc(N)c3cnn(C)c3c2c1)[C@@H]1COC(C)(C)c2cc(C(F)(F)F)ccc21` [Example 16, (S)-4-amino-N-(1,1-dimethyl-7-(trifluoromethyl)isochroman-4-yl)-N,1-dimethyl-1H-pyrazolo[4,3-c]quinoline-8-carboxamide] showed an IC50 [1] of 4.7 nM, an IC50 [2] of 3.7 nM and an IC50 [3] of 487 nM. The IC50 [4] was 682 nM.
Compound `CN(C(=O)c1ccc2nc(N)c3cnn(C)c3c2c1)[C@@H]1COC(C)(C)c2cc(-c3cscn3)ccc21` [Example 42, N-((4S)-1,1-dimethyl-7-(1,3-thiazol-4-yl)isochroman-4-yl)(4-amino-1-methylpyrazolo[4,5-c]quinolin-8-yl)-N-methylformamide] has an IC50 [1] of 6.1 nM, an IC50 [2] of 4.4 nM and an IC50 [3] of 1760 nM. For the same compound, the IC50 [4] was 1140 nM.
`CN(C(=O)c1ccc2nc(N)c3cnn(C)c3c2c1)C1COC2(CCC2)c2cc(C(F)(F)F)ccc21` (stereo not drawn) [Example 30] was tested, and the IC50 [1] was 10.9 nM, the IC50 [2] was 5.3 nM and the IC50 [3] was 767 nM. For the same compound, the IC50 [4] was 862 nM.
`CN(C(=O)c1ccc2nc(N)c3c(c2c1)OCC3)C1COC(C)(C)c2cc(C(F)(F)F)ccc21` (stereo not drawn) [Example 6, 4-Amino-N-(1,1-dimethyl-7-(trifluoromethyl)isochroman-4-yl)-N-methyl-2,3-dihydrofuro[3,2-c]quinoline-8-carboxamide] showed an IC50 [1] of 355 nM, an IC50 [2] of 269 nM and an IC50 [3] of 5950 nM. It also gave an IC50 [4] of 5940 nM.
`CC1OCc2c1c(N)nc1cnc(C(=O)N(C)C3COC(C)(C)c4cc(C(F)(F)F)ccc43)cc21` (stereo not drawn) [Example 18, 4-Amino-N-(1,1-dimethyl-7-(trifluoromethyl)isochroman-4-yl)-N,3-dimethyl-1,3-dihydrofuro[3,4-c][1,7]naphthyridine-8-carboxamide] showed an IC50 [1] of 62.9 nM, an IC50 [2] of 38.4 nM and an IC50 [3] of 3080 nM. The IC50 [4] was 3970 nM.
In the case of `CN(C(=O)c1ccc2nc(N)c3cnn(C)c3c2c1)[C@@H]1COC(C)(C)c2nc(C(F)(F)F)ccc21` [Example 50], the IC50 [1] is reported as 525 nM, the IC50 [2] is reported as 413 nM and the IC50 [3] is reported as > 10000 nM. The IC50 [4] was 7400 nM.
